The results in this text go back to US8575145B2, “Triazolopyridine compounds as PIM kinase inhibitors” (Array BioPharma Inc., priority 2008, dated 2013).

SMILES strings stand for the structures.

For one assay, the target named is recombinant rat PIM-3 (Rattus norvegicus (Rat), UniProt O70444). Nature of the assay: PIM-3 Enzyme Assay. The following applies: read-out: PIM-3 IC50; 30 μM ATP, 0.5 nM PIM-3.
The next assay deals with PIM-1 (Homo sapiens (Human), UniProt P11309). Nature of the assay: PIM-1 Enzyme Assay. In kind it is biochemical. Conditions: 35 μM ATP, 0.25 nM PIM-1. The essentials:
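Radiometric kinase assay in 20 mM K+MOPS pH 7.4, 10 mM MgCl2, 0.005% Tween-20, 1 mM DTT, 2% DMSO final; 60 min at 22° C, stopped with H3PO4, product captured on P81 filter and counted by scintillation. IC50 from 4-parameter logistic fit of percent of control.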

Assay [1] relates to K562 (Ph+chronic myelogenous leukemia). Nature of the assay: Cellular Proliferation Assay, cell line B. The following applies: Homo sapiens; K562, 72 hours, CelltiterBlue; read-out: Cell Line B antiproliferative IC50. In kind it is cell-based. As to the method:
(§1) The assay for determination of the antiproliferative activity of multiple Pim inhibitors in the JAK2-driven cell lines was conducted as follows. Cells were plated out to 96-well plates at an initial density of 10,000 cells/well in 95 pt. Compounds were prepared at […] in DMSO by conducting 3-fold serial dilutions to give a 10-point dosing curve having a high dose of 1000 μM. Aliquots (5 μt) of these dilutions were then transferred to the appropriate wells of the 96-well plates containing cells to yield a final DMSO concentration of 0.5%. The cells were then incubated with compound for 72 hours at 37° C., 5% CO2. CelltiterBlue reagent (Promega, Catalog #: G8080) was then added (20 μL/well) and incubated at 37° C., 5% CO2 for 1-8 hours depending on the cell line being analyzed. The plate was then quantified employing a fluorescence plate reader (Model: Gemini [Molecular Devices]; Settings: 560 nm (Ex)/590 nm (Em) 570 nm (cut-off) [CellTiter Blue Assay].
(§2) The values for each well were then converted to a percent of untreated control (POC). These POC values were then plotted as a function of compound concentration. A 4-parameter curve-fit analysis was performed for each compound dilution and an IC50 value was calculated from this curve.
(§3) Cell lines • A: PC3 (Androgen independent prostate cancer) • B: K562 (Ph+chronic myelogenous leukemia) • C: MV4-11 (Acute myelogenous leukemia) • D: BxPC3 (Pancreatic Cancer) • E: HepG2 (Hepatocellular Carcinoma) • F: BaF3 (Mouse pro-B-cell line) • G: BaF3 TEL-JAK2 (Mouse pro-B-cell transformed with TEL-JAK2 fusion) • H: BaF2 BCR-Ab1 (Mouse pro-B-cell transformed with BCR-Ab1 fusion)
(In general: The colour change of resazurin is a common sign of viable cells or microbes.)

Assay [2] concerns the target GST-tagged recombinant full-length human PIM-2 (Homo sapiens (Human), UniProt Q9P1W9). Nature of the assay: PIM-2 Enzyme Assay. The following applies: read-out: PIM-2 IC50; 4 μM ATP, […] PIM-2.
Assay [3] relates to BaF3 TEL-JAK2 (Mouse pro-B-cell transformed with TEL-JAK2 fusion). The assay is described as follows: Cellular Proliferation Assay, cell line G. In kind it is cell-based. The following applies: BaF3 TEL-JAK2, 72 hours, CelltiterBlue, read-out: Cell Line G antiproliferative IC50. The protocol:
as §1, §2, §3

The subject of assay [4] is BaF3 (Mouse pro-B-cell line). Nature of the assay: Cellular Proliferation Assay, cell line F. Conditions: BaF3, 72 hours, CelltiterBlue, read-out: Cell Line F antiproliferative IC50. In kind it is cell-based. The protocol:
as §1, §2, §3

For assay [5], the system named is PC3 (Androgen independent prostate cancer). Nature of the assay: Cellular Proliferation Assay, cell line A. Type of assay: cell-based. Conditions: PC3, 72 hours, CelltiterBlue; read-out: Cell Line A antiproliferative IC50. As to the method:
as §1, §2, §3

Assay [6] concerns BaF2 BCR-Ab1 (Mouse pro-B-cell transformed with BCR-Ab1 fusion). The assay is described as follows: Cellular Proliferation Assay, cell line H. In kind it is cell-based. The following applies: BaF2 BCR-Ab1, 72 hours, CelltiterBlue, read-out: Cell Line H antiproliferative IC50. The protocol: as §1, §2, §3
In assay [7] the test system is BxPC3 (Pancreatic Cancer). The assay is described as follows: Cellular Proliferation Assay, cell line D. Type of assay: cell-based. The following applies: Homo sapiens, BXPC-3; BxPC3, 72 hours, CelltiterBlue; read-out: Cell Line D antiproliferative IC50. The protocol:
as §1, §2, §3

The test system of assay [8] is HepG2 (Hepatocellular Carcinoma). Nature of the assay: Cellular Proliferation Assay, cell line E. In kind it is cell-based. The following applies: Homo sapiens; HepG2, 72 hours, CelltiterBlue; read-out: Cell Line E antiproliferative IC50. As to the method: as §1, §2, §3

Chain of GST-tagged recombinant full-length human PIM-2 (Q9P1W9 whole entry, the tested form may be a part): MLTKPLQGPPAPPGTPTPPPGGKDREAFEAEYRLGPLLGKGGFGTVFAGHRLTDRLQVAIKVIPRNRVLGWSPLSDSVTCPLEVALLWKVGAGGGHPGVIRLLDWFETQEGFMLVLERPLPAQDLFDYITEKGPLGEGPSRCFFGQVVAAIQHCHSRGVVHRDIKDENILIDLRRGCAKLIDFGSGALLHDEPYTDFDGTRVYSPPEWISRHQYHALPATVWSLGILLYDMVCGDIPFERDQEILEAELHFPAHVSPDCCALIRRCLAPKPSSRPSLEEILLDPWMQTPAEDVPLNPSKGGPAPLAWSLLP
Chain of PIM-1 (P11309 whole entry, species assumed): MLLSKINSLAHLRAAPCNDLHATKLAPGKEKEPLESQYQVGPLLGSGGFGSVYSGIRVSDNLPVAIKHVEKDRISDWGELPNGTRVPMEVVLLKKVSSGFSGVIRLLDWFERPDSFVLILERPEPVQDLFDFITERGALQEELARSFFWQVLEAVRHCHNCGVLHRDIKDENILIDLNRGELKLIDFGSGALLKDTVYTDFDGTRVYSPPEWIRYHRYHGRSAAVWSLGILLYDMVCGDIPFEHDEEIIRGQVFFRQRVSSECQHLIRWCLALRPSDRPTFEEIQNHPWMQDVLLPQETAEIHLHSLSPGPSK
Experimental for recombinant rat PIM-3: The amount of radiolabeled product is then measured by liquid scintillation counting. The final buffer conditions were as follows: 20 mM K^+MOPS, pH 7.4, 10 mM MgCl2, 0.005% Tween-20, 1 mM DTT. […] Incubations were carried out for 60 min at 22° C. and quenched with 75 μL of 200 mM H3PO4, filtered through a Whatman P81 plate and washed (1×200 μL and 5×100 μL ) with 200 mM H3PO4. Liquid scintillation cocktail (50 μL ) was then added per well, and the plate was counted for 30 s/well using a TopCount NXT.
One-μL aliquots of these were then transferred to the assay mixtures above to give a final concentration of DMSO of 2%. […] For each plate, percent of control (POC) values were calculated for each well. IC50's were estimated from the POC's using a standard 4-parameter logistic model. The IC50 is defined as the concentration of inhibitor at which the POC equals 50 for the fitted curve.

As a reminder, the IC50 is the point on the concentration scale where inhibition reaches its midpoint. For `c1cc(NC2CCNCC2)c2nc(-c3nnc4ccccn34)ccc2c1` [Example 1, 2-([1,2,4]Triazolo[4,3-a]pyridin-3-yl)-N-(piperidin-4-yl)quinolin-8-amine di-trifloroacetate], the IC50 is 0.0044 µM on recombinant rat PIM-3; 0.0016 µM at PIM-1; greater than 10 µM in assay [1]; 1.11 µM in assay [2]; less than 2 µM in assay [3]; less than 2 µM in assay [4]. The IC50 in assay [5] and in [6] was less than 10 µM in each case.
Turning to `N[C@H]1CC[C@H](Oc2cccc3ccc(-c4nnc5ccccn45)nc23)CC1` [Example 17, (trans)-4-(2-([1,2,4]Triazolo[4,3-a]pyridin-3-yl)quinolin-8-yloxy)cyclohexanamine], the IC50 in [7] is less than 10 µM; on recombinant rat PIM-3 it was 0.003 µM; in assay [1], less than 10 µM; in assay [2], 0.134 µM; in [3], less than 2 µM; in assay [8], less than 10 µM. Moreover, the IC50 in assay [4], in assay [5] and in assay [6] was less than 2 µM in each case.
